Read-outs that look alike come from different tables or passages of the source. Starred links: 1 amine or outer side, 2 acyl side, 3 side chain; linkers in the order of their positions; H or OH if unused. Positions of bridges follow the written chain, without caps; N, C: chain ends. Non-standard residues stand in square brackets, D forms with d. Residues, ends and D or L forms follow the SMILES beside them. *: point of attachment. Phe(4-(CH2)5CO) = O=C([C@H](Cc1ccc(CCCCCC(=O)[*:3])cc1)N[*:1])[*:2]; Phe(3-(CH2)4CO) = O=C([C@H](Cc1cccc(CCCCC(=O)[*:3])c1)N[*:1])[*:2]; NEtPhe = CCN[C@@H](Cc1ccccc1)C(=O)O; NMeF = CN[C@@H](Cc1ccccc1)C(=O)O; NMeI = CC[C@H](C)[C@H](NC)C(=O)O; NMeL = CN[C@@H](CC(C)C)C(=O)O; NMeV = CN[C@H](C(=O)O)C(C)C; NMeA = CN[C@@H](C)C(=O)O; Piperidide = C1CCN(*)CC1; Sar = CNCC(=O)O; tBu = CC(C)(C)*

The nature of data set [1]: PAMPA (parallel artificial membrane permeability assay). The data set is classed as in vitro ADME. Conditions: for Papp at 18 hours, 50 µM: PAMPA. Summed up: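 Artificial membrane was 10% (w/v) egg lecithin plus 0.5% (w/v) cholesterol in dodecane on a PVDF filter. A 10 mM DMSO stock was added at 0.5% (v/v) to donor buffer (50 mM MOPSO, pH 6.5, 5.0% glycocholic acid). After 18 h at 37 °C, LC/MS or LC/UV gave donor and acceptor levels for Pe.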
In general terms: The PAMPA barrier holds no transporters, so it reflects passive diffusion.

A short description of data set [2]: Metabolic stability in human hepatic microsome. The following applies: microsomes. The class given is in vitro ADME.
Where [3] appears, read: membrane permeation rate (Pe), 50 mM MOPSO buffer pH 6.5 with 5.0% glycocholic acid, 37° C., 18 hours, read-out: iPAMPA Pe.
The mark [4] stands for this setting: pH 7.4, human hepatic microsome, NADPH(+), read-out: CL NADPH(+).
Setting [5] is: membrane permeation rate (Pe), 50 mM MOPSO buffer pH 6.5 with 5.0% glycocholic acid, 37° C., 18 hours.

`CC[C@H](C)[C@H]1C(=O)N[C@@H](COC(C)(C)C)C(=O)N(C)[C@@H](Cc2ccccc2)C(=O)N(C)[C@@H](C(C)C)C(=O)N[C@H](C(=O)N2CCCCC2)Cc2ccc(cc2)CCCCCC(=O)N(C)[C@@H](Cc2ccccc2)C(=O)N[C@@H](CC(C)C)C(=O)N(C)[C@@H](CC(C)C)C(=O)N[C@@H]([C@@H](C)O)C(=O)N(C)CC(=O)N1C` [DP-852] ([NMeF]L[NMeL]T[Sar][NMeI]S(tBu)[NMeF][NMeV][Phe(4-(CH2)5CO)]-Piperidide; lactam N-10): in data set [1] (setting [3]), the Papp at 18 hours, 50 µM turned out to be 0.7 ×10⁻⁶ cm/s. Further, the microsomal CLint at 1 uM in data set [2] (setting [4]) was 484 µL/min/mg.
Taken in the same sequence, the figures for `CC[C@H](C)[C@H]1C(=O)N[C@@H]([C@@H](C)O)C(=O)N(C)CC(=O)N(C)[C@@H](CC(C)C)C(=O)N[C@H](C(=O)N2CCCCC2)Cc2ccc(cc2)CCCCCC(=O)N[C@@H](CC(C)C)C(=O)N(C)[C@@H](CC(C)C)C(=O)N(C)[C@@H](Cc2ccccc2)C(=O)N[C@@H](C)C(=O)N(C)[C@@H](Cc2ccccc2)C(=O)N1C` [DP-856] (L[NMeL][NMeF]A[NMeF][NMeI]T[Sar][NMeL][Phe(4-(CH2)5CO)]-Piperidide; lactam N-10) were 0.44 ×10⁻⁶ cm/s and 183 µL/min/mg.
Take `CC(C)C[C@H]1C(=O)N(C)[C@@H](CC(C)C)C(=O)N[C@@H](C)C(=O)N(C)[C@@H](CC(C)C)C(=O)N(C)[C@@H](Cc2ccccc2)C(=O)N(C)[C@@H](Cc2ccccc2)C(=O)N[C@@H]([C@@H](C)O)C(=O)N(C)[C@@H](C)C(=O)N(C)[C@@H](CC(C)C)C(=O)N[C@H](C(=O)N2CCCCC2)Cc2ccc(cc2)CCCCCC(=O)N1C` [DP-858] ([NMeL][NMeL]A[NMeL][NMeF][NMeF]T[NMeA][NMeL][Phe(4-(CH2)5CO)]-Piperidide; lactam N-10): the Papp at 18 hours, 50 µM in data set [1] (setting [3]) was 1 ×10⁻⁶ cm/s. Besides, in data set [2] (setting [4]), the microsomal CLint at 1 uM is 77 µL/min/mg.
Taken in the same sequence, the figures for `CC[C@H](C)[C@@H]1NC(=O)[C@H](Cc2ccccc2)N(C)C(=O)CCCCCc2ccc(cc2)C[C@@H](C(=O)N2CCCCC2)NC(=O)[C@H](C(C)C)N(C)C(=O)[C@H](Cc2ccccc2)N(C)C(=O)[C@H](COC(C)(C)C)NC(=O)[C@H](CC(C)C)N(C)C(=O)CN(C)C(=O)[C@H]([C@@H](C)O)NC(=O)[C@H](CC(C)C)N(C)C1=O` [DP-861] ([NMeF]I[NMeL]T[Sar][NMeL]S(tBu)[NMeF][NMeV][Phe(4-(CH2)5CO)]-Piperidide; lactam N-10) were 2.9 ×10⁻⁶ cm/s and 320 µL/min/mg.
For `CC[C@H](C)[C@@H]1NC(=O)[C@H](CC(C)C)N(C)C(=O)CCCCc2cccc(c2)C[C@@H](C(=O)N2CCCCC2)NC(=O)[C@H](CC(C)C)N(C)C(=O)[C@H](C)N(C)C(=O)[C@H]([C@@H](C)O)NC(=O)[C@H](CC(C)C)N(C)C(=O)[C@H](COC(C)(C)C)NC(=O)[C@H](Cc2ccccc2)N(C)C(=O)[C@H](Cc2ccccc2)N(C)C1=O` [DP-862] ([NMeL]I[NMeF][NMeF]S(tBu)[NMeL]T[NMeA][NMeL][Phe(3-(CH2)4CO)]-Piperidide; lactam N-10), the “iPAMPA Pe” value in data set [1] (setting [5]) is given as 1.0E−07. Further, in data set [2] (setting [4]), the microsomal CLint at 1 uM was found to be 118 µL/min/mg.
For `CCN1C(=O)CCCCc2cccc(c2)C[C@@H](C(=O)N2CCCCC2)NC(=O)[C@H](CC(C)C)N(C)C(=O)CN(C)C(=O)[C@H]([C@@H](C)O)NC(=O)[C@H](CC(C)C)N(C)C(=O)[C@H](Cc2ccccc2)N(C)C(=O)[C@H](C)NC(=O)[C@@H]1Cc1ccccc1` [DP-863] ([NEtPhe]A[NMeF][NMeL]T[Sar][NMeL][Phe(3-(CH2)4CO)]-Piperidide; lactam N-8), the Papp at 18 hours, 50 µM in data set [1] (pH 6.5) is 35 ×10⁻⁶ cm/s. This compound yielded a microsomal CLint at 1 uM in data set [2] (human, pH 7.4, CL NADPH(+)) of 927 µL/min/mg.
In the case of `C=C1CCC(=O)N[C@@H](CC(C)C)C(=O)N(C)[C@@H](CC(C)C)C(=O)N(C)[C@@H]([C@@H](C)CC)C(=O)N[C@@H](C)C(=O)N(C)[C@@H](Cc2ccccc2)C(=O)N[C@@H]([C@@H](C)O)C(=O)N(C)CC(=O)N(C)[C@@H](Cc2ccccc2)C(=O)N(C)[C@@H](CC(C)C)C(=O)N[C@H](C(=O)N2CCCCC2)Cc2ccc1cc2` [DP-864], the Papp at 18 hours, 50 µM in data set [1] (setting [3]) came out at 2.3 ×10⁻⁶ cm/s. For the same compound, the microsomal CLint at 1 uM in data set [2] (setting [4]) was 171 µL/min/mg.
As to `CC[C@H](C)[C@H]1C(=O)N[C@@H](C)C(=O)N(C)[C@@H](Cc2ccccc2)C(=O)N[C@@H]([C@@H](C)O)C(=O)N(C)[C@@H](CC(C)C)C(=O)N[C@@H](Cc2ccccc2)C(=O)N(C)[C@@H](C(C)C)C(=O)N[C@H](C(=O)N2CCCCC2)Cc2ccc(cc2)CCCCCC(=O)NCC(=O)N(C)[C@@H](CC(C)C)C(=O)N1C` [DP-865] (G[NMeL][NMeI]A[NMeF]T[NMeL]F[NMeV][Phe(4-(CH2)5CO)]-Piperidide; lactam N-10), in data set [1] (setting [3]), the Papp at 18 hours, 50 µM came to 15 ×10⁻⁶ cm/s. Moreover, the microsomal CLint at 1 uM in data set [2] (setting [4]) was found to be 87 µL/min/mg.
Turning to `CC[C@H](C)[C@@H]1NC(=O)CCCCCc2ccc(cc2)C[C@@H](C(=O)N2CCCCC2)NC(=O)[C@H](Cc2ccccc2)N(C)C(=O)[C@H](CC(C)C)N(C)C(=O)[C@H](C)N(C)C(=O)[C@H](Cc2ccccc2)N(C)C(=O)[C@H]([C@@H](C)O)NC(=O)[C@H](CC(C)C)N(C)C(=O)[C@H](C)N(C)C(=O)[C@H](CC(C)C)N(C)C1=O` [DP-868] (I[NMeL][NMeA][NMeL]T[NMeF][NMeA][NMeL][NMeF][Phe(4-(CH2)5CO)]-Piperidide; lactam N-10), in data set [1] (setting [3]), the Papp at 18 hours, 50 µM was 0.24 ×10⁻⁶ cm/s. Also, in data set [2] (setting [4]), the microsomal CLint at 1 uM stood at 61 µL/min/mg.
The corresponding values for `C=C1CCC(=O)N[C@@H](CC(C)C)C(=O)N2CCC[C@H]2C(=O)N(C)[C@@H](C(C)C)C(=O)N[C@@H](Cc2ccccc2)C(=O)N(C)[C@@H](Cc2ccccc2)C(=O)N(C)[C@@H](CC(C)C)C(=O)N[C@@H](C)C(=O)N(C)[C@@H]([C@@H](C)CC)C(=O)N[C@H](C(=O)N2CCCCC2)Cc2ccc1cc2` [DP-869] are 0.86 ×10⁻⁶ cm/s and 331 µL/min/mg.
Regarding `CC[C@H](C)[C@H]1C(=O)N[C@H](C(=O)N2CCCCC2)Cc2ccc(cc2)CCCCCC(=O)N[C@@H](CC(C)C)C(=O)N2CCC[C@H]2C(=O)N(C)[C@@H](C(C)C)C(=O)N[C@@H](Cc2ccccc2)C(=O)N(C)[C@@H](Cc2ccccc2)C(=O)N(C)[C@@H](CC(C)C)C(=O)N[C@@H](C)C(=O)N1C` [DP-871] (LP[NMeV]F[NMeF][NMeL]A[NMeI][Phe(4-(CH2)5CO)]-Piperidide; lactam N-9), in data set [1] (setting [3]), the Papp at 18 hours, 50 µM amounted to 1.2 ×10⁻⁶ cm/s. In addition, the microsomal CLint at 1 uM in data set [2] (setting [4]) was found to be 389 µL/min/mg.
Regarding `CC[C@H](C)[C@H]1C(=O)N[C@H](C(=O)N2CCCCC2)Cc2cccc(c2)CCCCC(=O)N[C@@H](CC(C)C)C(=O)N2CCC[C@H]2C(=O)N(C)[C@@H](C(C)C)C(=O)N[C@@H](Cc2ccccc2)C(=O)N(C)[C@@H](Cc2ccccc2)C(=O)N(C)[C@@H](CC(C)C)C(=O)N[C@@H](C)C(=O)N1C` [DP-872] (LP[NMeV]F[NMeF][NMeL]A[NMeI][Phe(3-(CH2)4CO)]-Piperidide; lactam N-9), the Papp at 18 hours, 50 µM in data set [1] (setting [3]) came to 3.1 ×10⁻⁶ cm/s. For the same compound, in data set [2] (setting [4]), the microsomal CLint at 1 uM was found to be 397 µL/min/mg.
In the case of `CC[C@H](C)[C@H]1C(=O)N[C@@H](C)C(=O)N(C)[C@@H](CC(C)C)C(=O)N[C@@H](COC(C)(C)C)C(=O)N(C)[C@@H](CC(C)C)C(=O)N[C@H](C(=O)N2CCCCC2)Cc2ccc(cc2)CCCCCC(=O)N[C@@H](Cc2ccccc2)C(=O)N(C)[C@@H](Cc2ccccc2)C(=O)N(C)[C@@H](CC(C)C)C(=O)N[C@@H]([C@@H](C)O)C(=O)N(C)[C@@H](C)C(=O)N1C` [DP-873] (F[NMeF][NMeL]T[NMeA][NMeI]A[NMeL]S(tBu)[NMeL][Phe(4-(CH2)5CO)]-Piperidide; lactam N-11), in data set [1] (setting [5]), the “iPAMPA Pe” value is 1.0E−07. In addition, the microsomal CLint at 1 uM in data set [2] (setting [4]) stood at 39 µL/min/mg.

Source of the values: US9409952B2, “Peptide-compound cyclization method” (Chugai Seiyaku Kabushiki Kaisha, priority 2011, dated 2016).
